Measured values as given in PubChem BioAssay AID504844 (National Center for Advancing Translational Sciences (NCATS), 2011).

System: mouse plasma stability, LC-MS/MS, 48 h
Assay: Inhibitors of HPGD: Mouse Plasma Stability Profiling
Settings: at 2 µM; active compounds read high
Description: Human 15-Hydroxyprostaglandin dehydrogenase (HPGD) catalyzes the inactivation of prostaglandin E2, and plays a major role in cancer biology by antagonizing the oncogenic potential of cyclooxygenase type 2 (COX2). Follow-up assays are available, based on absorbance/fluorescence increase of NADH with the substrate 15-OH prostaglandin E2. Please see summary AID for more information on this project. After qHTS, hits were confirmed in follow-up assays, and leads were optimized through SAR. The resulting lead compound was further characterized through a battery ADME-Tox experiments, and this assay describes its stability in mouse plasma. NIH Chemical Genomics Center [NCGC] NIH Molecular Libraries Probe Centers Network [MLPCN] MLPCN Grant: MH084681-02 Assay Submitter (PI): Udo Oppermann, Structural Genomics Consortium
2microM of compound is incubated in mouse plasma, the reference compound is procaine. Compounds are incubated at 37 deg C for the pre-determined time periods and the when aliquots are removed. Samples are analyzed with LC-MS/MS.

percent remaining [%] | SMILES
98 | Cc1cc(-c2nnc3n2CCCCC3)c(C)n1-c1ccccc1
98 | Cc1cccc(-n2cnc3cc(C(=O)N4CCCCC4)ccc32)c1
